Laboratory results: article PMC12452389, “Arginine-Derived Cationic Surfactants Containing Phenylalanine and Tryptophan: Evaluation of Antifungal Activity, Biofilm Eradication, Cytotoxicity, and Ecotoxicity” (Journal of Xenobiotics, 2025)
≈ marks a conversion by molar mass, not a printed value. Where two headings read alike, the source gives them in different places. Peptide text beside a SMILES is read from it. * marks the point of attachment. Lauroyl = CCCCCCCCCCCC(=O)*

Legend:
S. aureus SH1000 [1] = system: S. aureus SH1000; set-up: method as in PMID 19889790; conditions: cited from earlier work
S. aureus SH1000 [2] = system: S. aureus SH1000; set-up: method as in PMID 19889790; conditions: cited from earlier work; remark: listed apart in the source
Daphnia magna = assay: Acute toxicity, immobilization test; format: in vivo
Protocol: Aquatic toxicity evaluation was performed using Daphnia magna following established protocols. This bioassay method employs laboratory-cultured freshwater microcrustaceans to evaluate surfactant toxicity in aquatic environments. Test organisms were utilized during their initial 24 h life stage to ensure consistency. The endpoint measurement focused on mobility impairment, specifically the loss of swimming capability after gentle stimulation lasting 15 s. Testing conditions included controlled water chemistry parameters: pH maintained at 8.0, calcium-to-magnesium ratio of 4:1, and total hardness of 250 mg/L as CaCO3. All experiments were conducted under dark conditions at 20 °C. The experimental design incorporated ten test concentrations for each surfactant compound, distributed in geometric progression. Each concentration level included 20 Daphnia specimens distributed across four replicate groups of five organisms each. Mobility assessment occurred at 48 h post-exposure, with immobilization percentages plotted against concentration using probability–logarithmic scaling.

[3] = system: Candida albicans ATCC 90028; assay: MIC broth microdilution; format: cell-based; conditions: C. albicans; for MIC: Candida albicans, ATCC90028, read-out: MIC
Protocol: (§1) The antimicrobial activity of these compounds was assessed against selected yeast and bacterial strains: Candida albicans ATCC 90028 (CA9), Candida rugosa ATCC 10571 (CR), Candida glabrata ATCC 66032 (CG), Candida parapsilosis ATCC 22019 (CP), Candida tropicalis ATCC 7349 (CT), Candida auris ATCC 21092 (CA), and Cyberlindnera jadinii ATCC 60459. Frozen yeast stocks were plated on Sabouraud agar (SBA) and incubated at 30 °C for 24 h. Three to four colonies from each strain were then suspended in RPMI 1640 (Roswell Park Memorial Institute medium, Sigma- Aldrich, Merck, Darmstadt, Germany) to prepare bacterial dispersions of ~1.5 × 10^6 CFU/mL.
(§2) A broth microdilution assay was used to calculate MIC values. Twofold serially diluted compounds in RPMI 1640 medium (from 256 to 2 μg/mL), were dispensed (100 μL per well) into a 96-well plate. Then, 100 μL of a yeast starter culture was added to each well to reach a final inoculum of 7.5 × 10^5 CFU/mL. Wells containing only nutrient broth without the tested surfactant served as growth controls. Microbial growth was assessed by turbidity, which reflects increases in biomass and cell count. […] To confirm the obtained MICs, 20 μL of 0.015% (w/v) resazurin was dispensed to each well and incubated for 3 h at 30 °C. Metabolic activity was evidenced by a color change from blue to pink, thereby confirming the MIC value.

Candida auris ATCC 21092 = assay: MIC broth microdilution; format: cell-based; conditions: C. auris; for MIC: Candidozyma auris, ATCC21092, read-out: MIC
Protocol: as §1, §2

[4] = system: Candida glabrata ATCC 66032; assay: MIC broth microdilution; format: cell-based; conditions: for MIC: Nakaseomyces glabratus, read-out: MIC
Protocol: as §1, §2

[5] = system: Candida parapsilosis ATCC 22019; assay: MIC broth microdilution; format: cell-based; conditions: C. parapsilosis; for MIC: Lodderomyces parapsilosis, ATCC22019, read-out: MIC
Protocol: as §1, §2

[6] = system: Candida rugosa ATCC 10571; assay: MIC broth microdilution; format: cell-based; conditions: C. rugosa; for MIC: Diutina rugosa, ATCC10571, read-out: MIC
Protocol: as §1, §2

[7] = system: Candida tropicalis ATCC 7349; assay: MIC broth microdilution; format: cell-based; conditions: C. tropicalis; for MIC: Candida tropicalis, ATCC7349, read-out: MIC
Protocol: as §1, §2

[8] = system: Cyberlindnera jadinii ATCC 60459 (C. jardinii); assay: MIC broth microdilution; format: cell-based; conditions: for MIC: Williopsis jadinii; for Selectivity Index (HC50/MIC): C. jardini
Protocol: as §1, §2

[9] = Surface tension, pendant drop tensiometer (cmc, γc); format: physicochemical; conditions: for cmc: from surface tension
Protocol: Surface tension was measured using a custom-built pendant drop tensiometer, as described in detail in reference. Briefly, a droplet of surfactant solution is formed at the tip of a straight-cut Teflon tube. The image of the droplet is captured using a webcam, and its shape is analyzed by fitting the droplet profile to the Laplace–Young equation [14], To minimize evaporation, all measurements were conducted in a saturated humid atmosphere. The use of this technique is especially well-suited for cationic surfactants because it helps to mitigate complications related to surface adsorption. Critical micelle concentration values (cmc) were determined by finding the intersection of the linear fits before and after the break in the curves.

C. albicans biofilms = assay: Eradication of mature biofilm, MTT method; format: cell-based, Candida albicans; conditions: highest concentration tested
Protocol: Candida strains were cultured in SBA at 30 °C for 24 h. Yeast cells were then suspended in RPMI 1640 broth to a final concentration of 1.5 × 10^7 CFU/mL. For mature biofilm formation, 200 μL of these suspensions was transferred to each well of a 48-well microplate and incubated at 30 °C for 24 h. After incubation, the plate was washed with phosphate-buffered saline (PBS) to remove non-adherent cells. Then, surfactant solutions at various concentrations (200 μL), prepared in RPMI 1640, were added to the wells containing the mature biofilms. Plates were incubated again at 30 °C for 24 h. Following this treatment, the RPMI medium was removed, and wells were washed twice with PBS. To assess biofilm viability, 200 μL of MTT solution (3-(4,5-dimethylthiazol-2-yl)-2,5-diphenyltetrazolium bromide) were added to each well, and plates were incubated for 4 h. After incubation, the MTT solution was removed, and 200 μL of dimethyl sulfoxide (DMSO) were added to solubilize the formazan crystals. Absorbance at 540 nm (A540) was then measured using a microplate reader. Controls without the amino acid-based surfactants were included. All experiments were made in quadruplicate, and the results were averaged to ensure accuracy and reproducibility.
In this section, we have tested the ability of these cationic surfactants to eradicate mature fungal biofilms of C. albicans and C. tropicalis. Preformed biofilms of these two strains on 48-well plates were exposed to various concentrations of the synthesized surfactants, and the biofilm was not removed after the treatment was quantified using the MTT method (3-[4,5-dimethylthiazol-2-yl]-2,5 diphenyl tetrazolium bromide) (Figure 4). This method detects viable and metabolically active cells within the biofilm by measuring the reduction in MTT to formazan by active mitochondrial enzymes.

erythrocytes = assay: Hemolytic activity assay; format: cell-based; conditions: rabbit erythrocytes
Protocol: Fresh rabbit blood was obtained from the Animal Facility of the CID-CSIC (Research and Development Center, Spanish National Research Council, Barcelona, Spain). Sample collection was conducted in strict compliance with the bioethical guidelines established under Spanish legislation. Erythrocytes were isolated by centrifugation (3000 rpm/10 min). The supernatant was discarded, and the erythrocytes were washed three times with PBS (phosphate-buffered saline, pH 7.4) and then resuspended in PBS at a concentration of 8 × 10^9 cells/mL. Subsequently, varying volumes of a concentrated surfactant solution were added to Eppendorf tubes containing 25 μL of erythrocyte suspension. PBS was then added to bring the total volume to 1 mL. The samples were gently shaken for 10 min at room temperature and centrifuged at 10,000 rpm for 5 min. Hemolysis was evaluated by measuring the absorbance of the supernatant at 540 nm and comparing it to that of a 100% hemolysis control (erythrocytes treated with distilled water). The HC50, defined as the surfactant concentration that induces 50% hemolysis, was determined from the concentration–response curves: % hemolysis= Abstest compound/AbsBasal haemolytic activity ×100

[10] = set-up: method as in PMID 36559096; conditions: conductivity values; cited from earlier work
[11] = set-up: method as in PMID 36559096; conditions: CO2 Headspace test, pass level 60%; cited from earlier work
Vibrio fischeri = assay: Luminescence reduction test; format: cell-based; conditions: Aliivibrio fischeri, 0.25 h; Vibrio fischeri bioluminescence, 15 min of exposure; 95% confidence intervals in parentheses
Protocol: Ecotoxicological assessment of cationic surfactants was conducted using the Vibrio fischeri luminescent bioassay. This method relies on the measurement of decreased bioluminescent output from marine bacteria following contact with potentially toxic substances. Regression analysis was used to determine the concentration of the compound that caused a 50% reduction (EC50) in the amount of light emitted by the bacteria. The stated toxicity statistics given are based on the bacteria being exposed to the ionic liquid solution for 15 min at 15 °C.

[12] = ATCC66032, 24 h, C. glabrata, RPMI 1640, 24 h, 30 °C
[13] = ATCC66032, C. glabrata, value in parentheses
[14] = ATCC60459, C. jardinii, RPMI 1640, 24 h, 30 °C, read-out: MIC
[15] = ATCC60459, C. jardinii, value in parentheses, read-out: MIC

| Compound | MIC (S. aureus SH1000 [1]) | MBEC (S. aureus SH1000 [2]) | MIC ([3]; RPMI 1640, 24 h, 30 °C) | MIC ([3]; value in parentheses) | MIC (Candida auris ATCC 21092; RPMI 1640, 24 h, 30 °C) | MIC (Candida auris ATCC 21092; value in parentheses) | MIC [4, 12] | MIC [4, 13] | MIC ([5]; RPMI 1640, 24 h, 30 °C) | MIC ([5]; value in parentheses) | MIC ([6]; RPMI 1640, 24 h, 30 °C) | MIC ([6]; value in parentheses) | MIC ([7]; RPMI 1640, 24 h, 30 °C) | MIC ([7]; value in parentheses) | also measured |
| --- | --- | --- | --- | --- | --- | --- | --- | --- | --- | --- | --- | --- | --- | --- | --- |
| O=C(O)c1cn(C2CC2)c2cc(N3CCNCC3)c(F)cc2c1=O [ciprofloxacin] | 4 µg/mL (≈ 12.1 µM) | > 256 µg/mL |  |  |  |  |  |  |  |  |  |  |  |  |  |
| CCCCCCCCCCCCCCCC[N+](C)(C)C.[Br-] [CTAB] | 2 µg/mL | > 256 µg/mL |  |  |  |  |  |  |  |  |  |  |  |  |  |
| [H]/N=C(\N/C(=N/[H])NCCCCCCNC(=N)NC(=N)Nc1ccc(Cl)cc1)Nc1ccc(Cl)cc1 [chlorhexidine] | 1 µg/mL (≈ 1.98 µM) | > 256 µg/mL |  |  |  |  |  |  |  |  |  |  |  |  |  |
| dodecyl dimethyl ammonium bromide [DDAB, reference compound] |  |  |  |  |  |  |  |  |  |  |  |  |  |  | EC50 (Daphnia magna; Daphnia magna immobilization, 48 h of exposure, 95% confidence intervals in parentheses): 0.15 (0.14–0.17) μg/mL |
| CCCCCCCCNC(=O)C(CCCNC(=N)N)NC(=O)C(N)Cc1ccccc1 (stereo not shown) [PANHC8] |  |  | > 256 µg/mL | > 512 µM | > 256 µg/mL | > 512 µM | 256 µg/mL | 512 µM | 256 µg/mL | 512 µM | > 256 µg/mL | > 512 µM | 256 µg/mL | 512 µM | MIC [8, 14]: > 256 µg/mL; MIC [8, 15]: > 512 µM |
| CN(C)[C@@H]1C(O)=C(C(N)=O)C(=O)[C@@]2(O)C(O)=C3C(=O)c4c(O)cccc4[C@@](C)(O)[C@H]3C[C@@H]12 [tetracycline] | 0.5 µg/mL (≈ 1.13 µM) | > 256 µg/mL |  |  |  |  |  |  |  |  |  |  |  |  |  |
| CCCCCCCCCCCC(=O)NC(Cc1c[nH]c2ccccc12)C(=O)NC(CCCNC(=N)N)C(=O)OC (stereo not drawn) [C12TAM] (Lauroyl-Trp-Arg-OMe; configuration not given here) |  |  | 32 µg/mL | 54 µM | 16 µg/mL | 27 µM | 16 µg/mL | 27 µM | 16 µg/mL | 27 µM | 8 µg/mL | 13 µM | 16 µg/mL | 27 µM | γc (surface tension at the cmc) [9]: 32.1 ± 2.3 mNm^−1; cmc [9]: 0.65 mM; Selectivity Index (HC50/MIC) ([3]; Table S1): 0.7; Selectivity Index (HC50/MIC) (Candida auris ATCC 21092; Table S1): 1.4; Selectivity Index (HC50/MIC) ([4]; C. glabrata, Table S1): 1.4; Selectivity Index (HC50/MIC) ([5]; Table S1): 1.4; Selectivity Index (HC50/MIC) ([6]; Table S1): 3; Selectivity Index (HC50/MIC) ([7]; Table S1): 1.4; Selectivity Index (HC50/MIC) ([8]; Table S1): 0.7; MIC ([8]; ATCC60459): 54 µM; MIC ([8]; ATCC60459, 24 h): 32 µg/mL; reduction of the metabolic activity of the biofilm (C. albicans biofilms): less than 65%; HC50 (erythrocytes; 10 min, room temperature): 24 ± 0.8 µg/mL; HC50 (erythrocytes; value in parentheses): 40 ± 1.6 µM; cmc Cond [10]: 0.5 mM; biodegradation [11]: over 60% |
| CCCCCCCCCCCCCCNC(=O)C(CCCNC(=N)N)NC(=O)C(N)Cc1c[nH]c2ccccc12 (stereo not shown) [TANHC14] |  |  | 16 µg/mL | 25 µM | 16 µg/mL | 25 µM | 8 µg/mL | 14 µM | 16 µg/mL | 25 µM | 4 µg/mL | 7 µM | 4 µg/mL | 7 µM | γc (surface tension at the cmc) [9]: 32.8 ± 1.2 mNm^−1; cmc [9]: 0.7 mM; Selectivity Index (HC50/MIC) ([3]; Table S2): 1.1; Selectivity Index (HC50/MIC) (Candida auris ATCC 21092; Table S2): 1.1; Selectivity Index (HC50/MIC) ([4]; C. glabrata, Table S2): 1.9; Selectivity Index (HC50/MIC) ([5]; Table S2): 1.1; Selectivity Index (HC50/MIC) ([6]; Table S2): 3.7; Selectivity Index (HC50/MIC) ([7]; Table S2): 3.7; Selectivity Index (HC50/MIC) ([8]; Table S2): 1.9; MIC [8, 14]: 8 µg/mL; MIC [8, 15]: 14 µM; HC50 (erythrocytes; 10 min, room temperature): 16 ± 0.18 µg/mL; HC50 (erythrocytes; value in parentheses): 26 ± 0.3 µM; EC50 (Daphnia magna; Daphnia magna, 48 h): 0.85 µg/mL (≈ 1.53 µM); EC50 (Vibrio fischeri): 2.6 µg/mL (≈ 4.68 µM); cmc Cond [10]: 0.3 mM |
